Test results from patent publication US6245734A (priority 1997, dated 2001).
Converted amounts (≈) assume the structure as drawn. Read-outs that look alike come from different tables or passages of the source.

Legend:
[1] = system: incubated cancer cells; conditions: cited from earlier work
[2] = system: leukemia cells and experimental cancer cells artificially generated by carcinogen virus and the like; conditions: cited from earlier work
[3] = system: spontaneously generated human solid cancer cells; conditions: cited from earlier work
[4] = system: AsPC-1 cell; conditions: 30 μg/ml adriamycin; cited from earlier work
[5] = system: BxPC-3 cell; conditions: 3 μg/ml adriamycin, from start of treatment; cited from earlier work
[6] = system: Escherichia coli; assay: Antibacterial activity, serial dilution on Muller-Hinton agar; type: cell-based; conditions: gram-negative bacteria such as Escherichia coli
Protocol: Antibacterial spectra of polyoxypeptin and deoxypoly-oxypeptin against various microorganisms were determined on Muller-Hinton agar medium by a serial dilution method on the basis of the standard method of Japan Society of Chemotherapy.

[7] = system: AsPC-1 cells; assay: Activity inhibitory to the proliferation of human pancreatic cancer cell AsPC-1 (MTT assay); type: cell-based; conditions: ASPC1, 48 h, read-out: IC50 (concentration at which proliferation of AsPC-1 cells was inhibited by 50%)
Protocol: A cell suspension of AsPC-1 cells suspended in an RPMI 1640 culture medium containing 10% FBS was prepared, and 100 μl-portion each of said cell suspension was placed in a 96-well plastic plate in a proportion of 3×10^3 cells/well. Each plate was then incubated at 37° C. under a 5% CO2 for 1 day. Subsequently, polyoxypeptin or deoxypolyoxypeptin was added to the liquid culture medium present in each well at a concentration of 1, 3, 10, 30 or 100 ng/ml of said compound. Then the incubation of the cells was effected for 2 days. Then, the number of cells was counted by MTT assay method.

[8] = system: other human solid cancer cells; assay: Apoptosis induction on other human solid cancer cells; type: cell-based
[9] = system: AsPC-1 cells; assay: Apoptosis-inducing activity on human pancreatic cancer cell AsPC-1 (Trypan Blue); type: cell-based; conditions: for IC50: Homo sapiens, read-out: IC50 (concentration at which cell death by apoptosis is induced at 50% of total AsPC-1 cells); for time after drug treatment in which apoptosis was induced on AsPC-1 cells: after the drug treatment
Protocol: A cell suspension containing the AsPC-1 cells suspended in an RPMI 1640 culture medium containing 10% FBS was prepared, and 500 μl-portion each of the cell suspension was placed in a 24-well plastic plate in a proportion of 1×10^5 cells/well. The cell suspension was incubated at 37° C. under 5% CO2 for 1 day. The AsPC-1 cells adhered onto the bottom surface of each well. Subsequently, polyoxypeptin or deoxypolyoxypeptin was added to the liquid culture medium present in each well so as to give the substance under test at a concentration of 3, 100 or 300 μg/ml. The cells were incubated for 24 hours.
Immediately after the incubation for 24 hours, the supernatant liquid (500 μl) of the culture medium remaining in each well was removed from each well of said plastic plate and discarded. Then, the plastic plate was washed twice with a PBS buffer solution (each 300 μl), and the washings were discharged. Thereafter, a trypsin-EDTA buffer solution (200 μl) was added to said plastic plate, and the incubation was effected at 37° C. under CO2 -free condition so as to peel the cells off from the plate. The cells so peeled were transferred to an Eppendorf tube. The Eppendorf tube was centrifuged (2400 rpm, 10 minutes) to deposit the cells down, and the super-natant was removed and discarded. A fresh amount of the liquid culture medium was added to the cells. An 80 μl-portion of the resulting cell suspension as formed in said tube was taken into another Eppendorf tube, to which were then added 20 μl of Trypan Blue staining solution (containing 4 mg/ml of Trypan Blue and 9 mg/ml of NaCl). The cell suspension was taken out from the resulting mixture by a pipette, and the cell suspension so pipetted was placed on a hemocytometer (made by Elma Co.). The cell sample was observed under a microscope of 100 magnifications. The number of the dead cells as blue-colored amongst the cells under observation, and the total number of whole cells under observation were counted.
The survival rate (%) of the cells was calculated by an equation of 100-[(number of dead cells.div. total number of tested cells)×100].

[10] = Solubility; conditions: for Solubility in organic solvents: methanol, ethanol, aqueous ethanol, chloroform, ethyl acetate, acetone, (n-)butanol, acetonitrile, toluene, dimethylsulfoxide
[11] = system: Human pancreatic adenocarcinoma cells BxPC-3; assay: Cytocidal activity, Trypan Blue; type: cell-based; conditions: read-out: IC50 (concentration required to kill 50% of cells)
Protocol: (§1) Various cancer cells as shown in Table 1 below were incubated for 24 hours on such culture medium as shown in the table which contained polyoxypeptin or deoxypolyoxypeptin added at various concentrations. After staining with Trypan Blue, the number.of the dead cells was counted, and the concentration of polyoxypeptin or deoxypolyoxypeptin required to kill 50% of the total number of cells of the cancer cells under test, namely the value of IC50, was calculated therefrom.

[12] = system: Human pancreatic adenocarcinoma cells AsPC-1; assay: Cytocidal activity, Trypan Blue; type: cell-based; conditions: read-out: IC50 (concentration required to kill 50% of cells)
Protocol: as §1

[13] = system: Human pancreatic adenocarcinoma cells PSN-1; assay: Cytocidal activity, Trypan Blue; type: cell-based; conditions: read-out: IC50 (concentration required to kill 50% of cells)
Protocol: as §1

[14] = system: Rat fibroblast cell NRK; assay: Cytocidal activity, Trypan Blue; type: cell-based; conditions: read-out: IC50 (concentration required to kill 50% of cells)
Protocol: as §1

[15] = system: Mouse fibroblast cell RSV-NIH3T3 (src-transformed NIH3T3); assay: Cytocidal activity, Trypan Blue; type: cell-based; conditions: read-out: IC50 (concentration required to kill 50% of cells)
Protocol: as §1

[16] = system: Human promyeloleukemia HL-60; assay: Cytocidal activity, Trypan Blue; type: cell-based; conditions: read-out: IC50 (concentration required to kill 50% of cells)
Protocol: as §1

[17] = system: Mouse fibroblast cell A4 (cerbB2-NIH3T3); assay: Cytocidal activity, Trypan Blue; type: cell-based; conditions: read-out: IC50 (concentration required to kill 50% of cells)
Protocol: as §1

[18] = system: Human epithelioma A431; assay: Cytocidal activity, Trypan Blue; type: cell-based; conditions: read-out: IC50 (concentration required to kill 50% of cells)
Protocol: as §1

[19] = system: Human pancreatic adenocarcinoma cells Panc-1; assay: Cytocidal activity, Trypan Blue; type: cell-based; conditions: read-out: IC50 (concentration required to kill 50% of cells)
Protocol: as §1

[20] = system: Mouse fibroblast cell NIH3T3; assay: Cytocidal activity, Trypan Blue; type: cell-based; conditions: read-out: IC50 (concentration required to kill 50% of cells)
Protocol: as §1

[21] = system: Human bibrosarcoma HT1080; assay: Cytocidal activity, Trypan Blue; type: cell-based; conditions: read-out: IC50 (concentration required to kill 50% of cells)
Protocol: as §1

[22] = system: Human T cell leukemia Jurkat; assay: Cytocidal activity, Trypan Blue; type: cell-based; conditions: read-out: IC50 (concentration required to kill 50% of cells)
Protocol: as §1

[23] = system: Human uterus body cancer HHUA; assay: Cytocidal activity, Trypan Blue; type: cell-based; conditions: read-out: IC50 (concentration required to kill 50% of cells)
Protocol: as §1

[24] = system: Human chronic promyeloleukemia K562; assay: Cytocidal activity, Trypan Blue; type: cell-based; conditions: read-out: IC50 (concentration required to kill 50% of cells)
Protocol: as §1

[25] = system: Mouse fibroblast cell K-ras-NIH3T3; assay: Cytocidal activity, Trypan Blue; type: cell-based; conditions: read-out: IC50 (concentration required to kill 50% of cells)
Protocol: as §1

[26] = system: Rat fibroblast cell K-ras-NRK; assay: Cytocidal activity, Trypan Blue; type: cell-based; conditions: read-out: IC50 (concentration required to kill 50% of cells)
Protocol: as §1

[27] = system: mice; assay: Acute toxicity in mice, single intravenous injection; type: in vivo, mouse; conditions: administered once by intravenous injection

## N.N.[Cl][Pt][Cl] [cisplatin]
[1]
  apoptosis induction on some of incubated cancer cells: have the activities of inducing the apoptosis
[2]
  apoptosis induction on leukemia cells and experimental cancer cells: can have an activity of inducing the apoptosis
[3]
  apoptosis induction on many spontaneously generated human solid cancer cells: does not induce apoptosis

## COc1cccc2c1C(=O)c1c(O)c3c(c(O)c1C2=O)C[C@@](O)(C(=O)CO)C[C@@H]3O[C@H]1C[C@H](N)[C@H](O)[C@H](C)O1 [adriamycin]
[4]
  apoptosis induction on AsPC-1 cell: does not induce apoptosis
[1]
  apoptosis induction on some of incubated cancer cells: have the activities of inducing the apoptosis
[2]
  apoptosis induction on leukemia cells and experimental cancer cells: can have an activity of inducing the apoptosis
[5]
  time within which apoptosis is induced on BxPC-3 cell: ≤ 24 h
[3]
  apoptosis induction on many spontaneously generated human solid cancer cells: does not induce apoptosis

## CCC(C)CC1CCC(O)(C(C)(O)C(=O)NC2C(=O)N3NCCCC3C(=O)N(O)C(C)C(=O)N3NCCCC3C(=O)N3CCC(C)(O)C3C(=O)N(O)C(C(C)C)C(=O)OC2C(C)C)OC1CC (centres unmarked) [deoxypolyoxypeptin]
[6]
  antibacterial activity against gram-negative bacteria: did not exhibit any antibacterial activity
[7]; 2 days incubation, MTT, RPMI 1640 with 10% FBS
  IC50: 0.015 mg/L (≈ 0.0157 µM)
[8]
  apoptosis-inducing activity on other human solid cancer cells: have also an activity of inducing apoptosis
[9]; ASPC1, 24 hours incubation, RPMI 1640 with 10% FBS
  IC50: 0.08 mg/L (≈ 0.0839 µM)
[9]
  time after drug treatment in which apoptosis was induced on AsPC-1 cells: approximately 24 hours
[10]
  Solubility in organic solvents: Soluble
  Solubility in water: hardly soluble
[11]; BxPC-3, 24 hours, medium A
  IC50: 0.03 mg/L (≈ 0.0315 µM)
[12]; ASPC1, AsPC-1, 24 hours, medium A
  IC50: 0.08 mg/L (≈ 0.0839 µM)
[13]; PSN1, PSN-1, 24 hours, medium A
  IC50: 0.01 mg/L (≈ 0.0105 µM)
[14]; NRK, 24 hours, medium C
  IC50: 0.18 mg/L (≈ 0.189 µM)
[15]; RSV-NIH3T3 (src-transformed NIH3T3), 24 hours, medium A
  IC50: 0.06 mg/L (≈ 0.0629 µM)
[16]; HL-60, 24 hours, medium A
  IC50: 0.04 mg/L (≈ 0.042 µM)
[17]; A4 (cerbB2-NIH3T3), 24 hours, medium A
  IC50: 0.06 mg/L (≈ 0.0629 µM)
[18]; A-431, A431, 24 hours, medium C
  IC50: 0.03 mg/L (≈ 0.0315 µM)
[19]; Panc-1, 24 hours, medium A
  IC50: 0.05 mg/L (≈ 0.0525 µM)
[20]; NIH3T3, 24 hours, medium A
  IC50: 0.05 mg/L (≈ 0.0525 µM)
[21]; HT-1080, HT1080, 24 hours, medium D
  IC50: 0.02 mg/L (≈ 0.021 µM)
[22]; 24 hours, medium B
  IC50: 0.05 mg/L (≈ 0.0525 µM)
[23]; HHUA, 24 hours, medium D
  IC50: 0.05 mg/L (≈ 0.0525 µM)
[24]; K562, 24 hours, medium A
  IC50: 0.02 mg/L (≈ 0.021 µM)
[25]; K-ras-NIH3T3, 24 hours, medium A
  IC50: 0.1 mg/L (≈ 0.105 µM)
[26]; K-ras-NRK, 24 hours, medium C
  IC50: 0.05 mg/L (≈ 0.0525 µM)
[27]
  LD50: 125 μg/mouse

## CCC(C)CC1CCC(O)(C(C)(O)C(=O)NC2C(=O)N3NCCCC3C(=O)N(O)C(C)C(=O)N3NCC(O)CC3C(=O)N3CCC(C)(O)C3C(=O)N(O)C(C(C)C)C(=O)OC2C(C)C)OC1CC (centres unmarked) [polyoxypeptin]
[6]
  antibacterial activity against gram-negative bacteria: did not exhibit any antibacterial activity
[7]
  IC50: 0.015 mg/L (≈ 0.0155 µM)
[8]
  apoptosis-inducing activity on other human solid cancer cells: have also an activity of inducing apoptosis
[9]; ASPC1, 24 h
  IC50: 0.08 mg/L (≈ 0.0825 µM)
[9]
  time after drug treatment in which apoptosis was induced on AsPC-1 cells: approximately 24 hours
[10]
  Solubility in organic solvents: Soluble
  Solubility in water: hardly soluble
[11]; BXPC-3, 24 h
  IC50: 0.03 mg/L (≈ 0.031 µM)
[12]; ASPC1, 24 h
  IC50: 0.08 mg/L (≈ 0.0825 µM)
[13]; PSN1, 24 h
  IC50: 0.01 mg/L (≈ 0.0103 µM)
[14]; 24 h
  IC50: 0.18 mg/L (≈ 0.186 µM)
[15]; NIH3T3, 24 h
  IC50: 0.06 mg/L (≈ 0.0619 µM)
[16]; HL-60, 24 h
  IC50: 0.04 mg/L (≈ 0.0413 µM)
[17]; 24 h
  IC50: 0.06 mg/L (≈ 0.0619 µM)
[18]; A-431, 24 h
  IC50: 0.03 mg/L (≈ 0.031 µM)
[19]; PANC-1, 24 h
  IC50: 0.05 mg/L (≈ 0.0516 µM)
[20]; NIH3T3, 24 h
  IC50: 0.05 mg/L (≈ 0.0516 µM)
[21]; HT-1080, 24 h
  IC50: 0.02 mg/L (≈ 0.0206 µM)
[22]; 24 h
  IC50: 0.05 mg/L (≈ 0.0516 µM)
[23]; 24 h
  IC50: 0.05 mg/L (≈ 0.0516 µM)
[24]; K562, 24 h
  IC50: 0.02 mg/L (≈ 0.0206 µM)
[25]; 24 h
  IC50: 0.1 mg/L (≈ 0.103 µM)
[26]; 24 h
  IC50: 0.05 mg/L (≈ 0.0516 µM)
[27]
  LD50: 67.5 μg/mouse
